Measured values from US10711000B2 (Fronthera U.S. Pharmaceuticals LLC, priority 2018, dated 2020).
Read-outs that look alike come from different tables or passages of the source.

What was measured:
Autotaxin [1] = target: T1, Autotaxin (Homo sapiens, UniProt Q13822); experiment: LPA formation in pooled human plasma (ex vivo autotaxin inhibition); assay type: biochemical; conditions: 2 hours incubation
T1 construct: from tissue; host or cells: pooled human plasma
Method in brief: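 Pooled human plasma incubated 2 h with various compound concentrations; LPA 18:2 and 20:4 quantified by LC/MS/MS (negative-ion MRM, LPA17:0 internal standard) after butanol extraction. Inhibition of LPA formation relative to untreated plasma; IC50 by non-linear regression.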

[2] = Pharmacokinetics after a single oral dose in SD rats; assay type: in vivo; conditions: Sprague-Dawley, rat, plasma, single oral dose in 0.5% methylcellulose; for half-life: read-out: T½ (converted)
Source text: (§1) The pharmacokinetics and pharmacodynamics of test compounds after a single oral dose were investigated in SD rats, Beagle dog and Cynomolgus monkey. SD Rats (200-250 g) were purchased from Beijing Vital River Laboratory Animal Technology Co., Ltd. Male Beagle Dog, 6-9 kg, were purchased from Beijing Mashall. Male Cynomolgus monkeys, 3-5 kg, were purchased from Suzhou Xishan Zhongke Drugs Research and Development Co., Ltd. Following arrival, the animals were acclimated for 7 days in individual cages maintained at ambient temperature, 34 to 68% relative humidity, and 12-h light/dark cycles. Just prior to dose administration the rats were fasted overnight with free access to water. Animals were given 10 mL/kg of formulated compound in 0.5% methylcellulose (MC) by oral gavage, and the animals were fed four hours after dosing. The animals were manually restrained at the designated time points (pre-dose, 0.5, 1, 3, 6, 9, 12, and 24 h post-dose) to collect blood. Approximately 120 μL of blood was collected via orbital sinus into K2EDTA tubes. The blood samples were centrifuged at 5000 rpm for 10 min at 4° C. to obtain plasma samples.
To determine the compound concentration in the plasma samples, a 10× calibration standard of compound were prepared by serial dilution in DMSO: 20000, 10000, 5000, 2000, 1000, 500, 200, 100, 50, 20, and 10 ng/mL. 3 μL of calibration standard solution was added into 27.0 μL of blank plasma in 1.5-mL microcentrifuge tubes to generate 1× calibration standards. The 30.0 μL of standards or study plasma was mixed with 200 μL of acetonitrile (containing 5 ng/mL verapamil for internal control) in a 1.5-mL microcentrifuge tube. After vertexing for 1 minute and centrifuging at 10000 rpm for 10 min, 180 μL of supernatant was transferred into a 96-well plate and the compound concentration in the plasma was quantitated using LC/MS/MS together with standards. Briefly, 1 μL of the solutions were injected for LC-MS/MS analysis using an Agilent Zorbax C18 column (50×2.1 mm, 3.5 μm) with mobile phase A [5 mM NH4Ac (0.1% FA)] and phase B [Methanol (0.1% FA)]. Mass spectrometer parameters optimization for compound was performed by infusing standard diluted at 1 μg/mL in water/methanol (1/1, v/v) directly in the ionization source at a flow of 10 μL/min. Quantitative data were acquired in multiple reaction monitoring (MRM) positive APCI mode.

Autotaxin [3] = target: T2, Autotaxin (Rattus norvegicus, UniProt Q64610); experiment: Pharmacodynamics: LPA 18:2 inhibition in plasma of SD rats after oral dose; conditions: single oral dose, LPA18:2 inhibition vs plasma concentration of compound, read-out: In vivo rat IC50 (LPA 18:2) (converted)
T2 construct: from tissue; host or cells: SD rats in vivo; plasma sampled after a single oral dose
Source text: as §1
Autotaxin is a secreted phosphodiesterase that converts lysophosphatidylcholine (LPC) into lysophosphatidic acid (LPA), and LPA 18:2 formation was used to evaluate the efficacy of autotaxin inhibitors. Therefore, the LPA 18:2 formation in response to drug administration was analyzed in each time point to assess the pharmacodynamics of test compounds. To determine the LPA18:2 concentration in study plasma, a 10× calibration standard of LPA 18:2 were prepared by serial dilution in butyl alcohol: 20000, 10000, 5000, 2000, 1000, 500, 200, 100, 50, 20, and 10 ng/mL. 3 μL of calibration standard solution was added into 27.0 μL of blank plasma in 1.5-mL microcentrifuge tubes to generate 1× calibration standards. The 30.0 μL of standards or study plasma was added into 1.5-mL microcentrifuge tubes. 200 μL of butyl alcohol (containing 25.0 ng/mL LPA17:0 for internal control) was added into each 1.5-mL microcentrifuge tube containing study plasma or calibration standards. After vortexing for 1 minute and centrifuging at 10000 rpm for 10 min, 180 μL of supernatant was transferred into a 96-well plate and the LPA18:2 concentration in the plasma was quantitated using LC/MS/MS together with standards. Briefly, 8 μL of the solutions were injected for LC-MS/MS analysis using an ACQUITY UPLC BEH C18 column (2.1×50 mm, 1.7 μm) with mobile phase A [20 mM NH4OAC in water (0.1% FA)] and phase B [5 mM NH4OAC in water/0.2% FA in ACN=5:95]. Mass spectrometer parameters optimization for LPA18:2 were performed by infusing standard diluted at 1 μg/mL in butyl Alcohol directly in the ionization source, at a flow of 10 μL/min. Deprotonated molecular ion at m/z 433.2 ([M−H]−) for LPA18:2, and abundant product ion at m/z 152.8 for LPA18:2 were obtained. Quantitative data were acquired in multiple reaction monitoring (MRM) negative electrospray ionization mode
The percentage of LPA18:2 inhibition was plotted against the corresponding concentration of compound and the IC50 was calculated through non-linear regression fitting.

[4] = LPA 18:2 by LC/MS/MS, read-out: LPA formation (18:2) (IC50)
[5] = LPA 20:4 by LC/MS/MS, read-out: LPA formation (20:4) (IC50)

Row | Compound | IC50 (Autotaxin [1]; [4]) [µM] | IC50 (Autotaxin [1]; [5]) [µM] | AUC [2] [ng·h/mL] | Cmax [2] [ng/mL] | half-life [2] [h] | IC50 (Autotaxin [3]) [µM]
1 | CN(c1nc(-c2ccc(F)cc2)c(C#N)s1)c1c(C2CC2)nn2cc(F)c(N3CCN(CC(=O)N4CC(O)C4)CC3)cc12 [Compound 113, 2-((2-cyclopropyl-6-fluoro-5-(4-(2-(3-hydroxyazetidin-1-yl)-2-oxoethyl)piperazin-1-yl)pyrazolo[1,5-a]pyridin-3-yl)(methyl)amino)-4-(4-fluorophenyl)thiazole-5-carbonitrile] | ≤ 0.1 | ≤ 0.1 | 963 ± 501 | 177 ± 99 | 2.92 ± 0.31 | 0.0148
2 | CCn1nc2nc(C)c(N3CC4(CN(C(=O)C5CCOCC5)C4)C3)cc2c1N(C)c1nc(-c2ccc(F)cc2)c(C#N)s1 [Compound 122, 2-((2-ethyl-6-methyl-5-(6-(tetrahydro-2H-pyran-4-carbonyl)-2,6-diazaspiro[3.3]heptan-2-yl)-2H-pyrazolo[3,4-b]pyridin-3-yl)(methyl)amino)-4-(4-fluorophenyl)thiazole-5-carbonitrile] | ≤ 0.1 | ≤ 0.1 | 1090 ± 544 | 403 ± 341 | 2.99 ± 3 | 0.0268
3 | CCc1nn2cc(C)c(N3CC4(CN(C(=O)[C@H]5CCOC5)C4)C3)cc2c1N(C)c1nc(-c2ccc(F)cc2)c(C#N)s1 [Example 97, (S)-2-((2-ethyl-6-methyl-5-(6-(tetrahydrofuran-3-carbonyl)-2,6-diazaspiro[3.3]heptan-2-yl)pyrazolo[1,5-a]pyridin-3-yl)(methyl)amino)-4-(4-fluorophenyl)thiazole-5-carbonitrile] | ≤ 0.1 | ≤ 0.1 | 4690 ± 526 | 336 ± 33.8 | 5.41 ± 1.7 | 0.02
4 | CN(c1nc(-c2ccc(F)cc2)c(C#N)s1)c1c(C2CC2)nn2cc(F)c(N3CC4(CN(C(=O)[C@H]5CCOC5)C4)C3)cc12 [Compound 114, (S)-2-((2-cyclopropyl-6-fluoro-5-(6-(tetrahydrofuran-3-carbonyl)-2,6-diazaspiro[3.3]heptan-2-yl)pyrazolo[1,5-a]pyridin-3-yl)(methyl)amino)-4-(4-fluorophenyl)thiazole-5-carbonitrile] | ≤ 0.1 | ≤ 0.1 | 1460 ± 1120 | 140 ± 102 | 3.72 ± 2.5 | 0.016

The remaining lines, values ahead:

Row | IC50 (Autotaxin [1]; [4]) [µM] | IC50 (Autotaxin [1]; [5]) [µM] | AUC [2] [ng·h/mL] | Cmax [2] [ng/mL] | half-life [2] [h] | IC50 (Autotaxin [3]) [µM] | Compound
5 | ≤ 0.1 | ≤ 0.1 | 4750 ± 1430 | 460 ± 178 | 3.77 ± 0.34 | 0.0975 | CCc1nn2cc(F)c(N3CC4(CN(C(=O)C5(O)CCOCC5)C4)C3)cc2c1N(C)c1nc(-c2ccc(F)cc2)c(C#N)s1 [Example 112, 2-[[2-ethyl-6-fluoro-5-[2-(4-hydroxytetrahydropyran-4-carbonyl)-2,6-diazaspiro[3.3]heptan-6-yl]pyrazolo[1,5-a]pyridin-3-yl]-methyl-amino]-4-(4-fluorophenyl)thiazole-5-carbonitrile]
6 | ≤ 0.1 | ≤ 0.1 | 350 ± 156 | 29.2 ± 15 | 7.21 ± 0.98 | 0.0192 | CCc1nn2cc(F)c(N3CC4(CN(C(=O)C5CCN(C)CC5)C4)C3)cc2c1N(C)c1nc(-c2ccc(F)cc2)c(C#N)s1 [Example 106, 2-((2-ethyl-6-fluoro-5-(6-(1-methylpiperidine-4-carbonyl)-2,6-diazaspiro[3.3]heptan-2-yl)pyrazolo[1,5-a]pyridin-3-yl)(methyl)amino)-4-(4-fluorophenyl)thiazole-5-carbonitrile]
7 | ≤ 0.1 | ≤ 0.1 | 1080 ± 313 | 209 ± 58 | 4.32 ± 1.5 | 0.0486 | [2H]c1c(F)c(N2CCN(CC(=O)N3CC(O)C3)CC2)cc2c(N(C)c3nc(-c4ccc(F)cc4)c(C#N)s3)c(CC)nn12 [Example 103, 2-((2-ethyl-6-fluoro-5-(4-(2-(3-hydroxyazetidin-1-yl)-2-oxoethyl)piperazin-1-yl)pyrazolo[1,5-a]pyridin-3-yl-7-d)(methyl)amino)-4-(4-fluorophenyl)thiazole-5-carbonitrile]
